Assay results reported in PMC3164320 (Journal of medicinal chemistry, 2011).

Test system: HIV-1LAI
Test: Antiviral MTT assay in MT-2 cells exposed to HIV-1LAI
Type: cell-based

Structure (SMILES) | fold loss of antiviral activity compared to 22 [fold]
CC(C)CN(C[C@@H](O)[C@H](Cc1ccccc1)NC(=O)O[C@@H]1C[C@@H]2[C@H](O)CO[C@@H]2C1)S(=O)(=O)c1ccc(N)cc1 [Inhibitor 23, (3S,3aR,5R,6aR)-3-Hydroxyhexahydro-2H-cyclopenta[b]furan-5-yl [(2S,3R)-4-(4-Amino-N-isobutylphenylsulfonamido)-3-hydroxy-1-phenylbutan-2-yl]carbamate] | 3
COc1ccc(S(=O)(=O)N(CC(C)C)C[C@@H](O)[C@H](Cc2ccccc2)NC(=O)O[C@@H]2C[C@@H]3[C@H](OC)CO[C@@H]3C2)cc1 [Inhibitor 25, (3S,3aS,5R,6aR)-3-Methoxyhexahydro-2H-cyclopenta[b]furan-5-yl [(2S,3R)-3-Hydroxy-4-(N-iso-butyl-4-methoxyphenylsulfonamido)-1-phenylbutan-2-yl]carbamate] | ~5
